Values quoted from earlier work, collected in patent US12324827B2, “Combination therapy for the treatment of migraines” (The University of Chicago, priority 2019, dated 2025).

How the values were obtained:
spreading depression = conditions: SD from KCl; pretreatment; cited from earlier work
[1] = tested on: trigeminal system neurons; conditions: in vivo; cited from earlier work

In the case of `CC1(C)O[C@@H]2[C@@H](CO[C@@]3(COS(N)(=O)=O)OC(C)(C)O[C@@H]23)O1` [topiramate, reference compound], the “protection against SD over sham treatment” value (spreading depression) is given as “no more than a two-fold level of protection”.

In the case of “TEV-48125: CGRP-mAb fremanezumab, humanized monoclonal anti-CGRP antibody”, the “CSD-based activation of Aδ fibers and C-fiber afferents in the trigeminal ganglion” value [1] is given as “reduce CSD-based activation of Aδ fibers but not activation of C-fiber afferents”, the “activation and sensitization of high threshold trigeminal system neurons after CSD” value [1] is given as “inhibited activation and sensitization” and the “direct inhibition of CSD” value [1] is given as “did not directly inhibit CSD”. The “wide dynamic range neurons of the caudal trigeminal nucleus” value [1] was “had no effect”.
